Assay results from EP2711369A1, “Liposomes containing tetraether lipid derivatives” (Bernina Plus GmbH, priority 2012, dated 2014).

Test system: Brattleboro rats
Experiment: In vivo testing of liposomes: urine excretion after oral DDAVP
Details: oral by gavage, DDAVP 10 µg/kg body weight
Experimental: Liposomes composed of STEL-PC and cholesterol in a ratio of 1 : 2.5 with DDVAP encapsulated as active agent were studied in the Brattleboro model.
Treatment with exogenous vasopression restores normal urinary function and exerts a temporal antidiuretic effect.
Brattleboro rats were hold singly in metabolic cages with free access to tap water. DDAVP was administered orally by gavage at a dose of 10 µg/kg body weight either as free compound or in various formulations. Urine excretion was measured over 24 h in 1 h intervals using a fraction collector.

1-desamino-8-D-arginine vasopressin [free DDAVP]
inhibition of urine excretion (duration): approximately 2 hours
